Laboratory results from patent US10294234B2, “HIV inhibitor compounds” (priority 2017, dated 2019).
Like-named read-outs stand apart in the source and are kept apart here.

Legend:
[1] = Experimental: Liver Microsomal Stability Protocol
Test compounds and one control compound (verapamil) were tested in 3 different species in duplicate sets.
Test compound concentration: 1 uM; Protein concentration: 0.5 mg/mL (for dog, rat, and human liver microsomes); Cofactor: NADPH-Regenerating system (NRS) solution; Time-points: 2, 12, 25, 45, and 65 minutes.
Reaction composition (in each incubation well) contains:
After plates were vortexed, they were centrifuged for 30 minutes to remove proteins. About 100 μL supernatant was removed to a new plate and diluted with 150 μL water. About 20 μL of the mixture was injected into LC/MS/MS system to monitor the compound's response. In vitro measured t1/2 was used to calculate Clint values.

[2] = tested on: HIV-1 (IIIB) in MT-4 cells; assay: MT-4 HIV assay; format: cell-based; details: Human immunodeficiency virus 1, MT4, 120 h
Procedure, shortened: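 MT-4 cells infected with HIV-1 IIIB (1:250 stock dilution) were incubated with 1:3 serially diluted compounds in RPMI with 10% FBS for 5 days at 37 °C. Cell Titer Glo luminescence was the readout. Plates included mock-infected wells, no-drug wells and 5 uM AZT controls.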

[3] = HIV-1 (IIIB), MT-4 cells, 5 days, Cell Titer Glo, read-out: EC50
[4] = human liver microsomes 0.5 mg/mL, 1 uM compound, NADPH
[5] = rat liver microsomes 0.5 mg/mL, 1 uM compound, NADPH

Row | Human Pred Cl. [1, 4] | Rat. Pred. Cl. [1, 5] | SMILES | Human Pred Cl. ([1]; human, microsomes) | Rat. Pred. Cl. ([1]; rat, microsomes) | EC50 [2, 3] | Dog. Pred. Cl. ([1]; dog, microsomes) | EC50 [2]
1 |  |  | COC(=O)N[C@H](C(=O)N[C@@H](Cc1ccc(C#Cc2ccc(N3CC4CCC(C3)N4C3COC3)nc2)cc1)[C@@H](O)CN(Cc1c(F)cc(-c2ccn([C@H]3CCOC3)n2)cc1F)NC(=O)[C@@H](NC(=O)OC)C(C)(C)C(F)(F)F)C(C)(C)C(F)(F)F [Example 14, Methyl ((5S,8S,9S,14S)-11-(2,6-difluoro-4-(1-((S)-tetrahydrofuran-3-yl)-1H-pyrazol-3-yl)benzyl)-16,16,16-trifluoro-9-hydroxy-15,15-dimethyl-8-(4-((6-(8-(oxetan-3-yl)-3,8-diazabicyclo[3.2.1]octan-3-yl)pyridin-3-yl)ethynyl)benzyl)-3,6,13-trioxo-5-(1,1,1-trifluoro-2-methylpropan-2-yl)-2-oxa-4,7,11,12-tetraazahexadecan-14-yl)carbamate] | 0.66 L/H/kg | 1.13 L/H/kg | 4.39 nM |  | 
2 |  |  | COC(=O)N[C@H](C(=O)N[C@@H](Cc1ccc(C#Cc2ccc(N3CC4CCC(C3)N4C3COC3)nc2)cc1)[C@@H](O)CN(Cc1c(F)cc(-c2ccn(CC(C)(C)O)n2)cc1F)NC(=O)[C@@H](NC(=O)OC)C(C)(C)C(F)(F)F)C(C)(C)C(F)(F)F [Example 16, Methyl ((5S,8S,9S,14S)-11-(2,6-difluoro-4-(1-(2-hydroxy-2-methylpropyl)-1H-pyrazol-3-yl)benzyl)-16,16,16-trifluoro-9-hydroxy-15,15-dimethyl-8-(4-((6-(8-(oxetan-3-yl)-3,8-diazabicyclo[3.2.1]octan-3-yl)pyridin-3-yl)ethynyl)benzyl)-3,6,13-trioxo-5-(1,1,1-trifluoro-2-methylpropan-2-yl)-2-oxa-4,7,11,12-tetraazahexadecan-14-yl)carbamate] | <0.11 L/H/kg | 0.45 L/H/kg | 4.64 nM |  | 
3 |  |  | COC(=O)N[C@H](C(=O)N[C@@H](Cc1ccc(C#Cc2ccc(N3CC4CCC(C3)N4C(=O)[C@@H]3CCCO3)nc2)cc1)[C@@H](O)CN(Cc1c(F)cc(-c2cnn(C(F)F)c2)cc1F)NC(=O)[C@@H](NC(=O)OC)C(C)(C)C(F)(F)F)C(C)(C)C(F)(F)F [Example 18, Methyl ((5S,8S,9S,14S)-11-(4-(1-(difluoromethyl)-1H-pyrazol-4-yl)-2,6-difluorobenzyl)-16,16,16-trifluoro-9-hydroxy-15,15-dimethyl-3,6,13-trioxo-8-(4-((6-(8-((S)-tetrahydrofuran-2-carbonyl)-3,8-diazabicyclo[3.2.1]octan-3-yl)pyridin-3-yl)ethynyl)benzyl)-5-(1,1,1-trifluoro-2-methylpropan-2-yl)-2-oxa-4,7,11,12-tetraazahexadecan-14-yl)carbamate] | 0.13 L/H/kg | 1.03 L/H/kg | 5 nM |  | 
4 |  |  | COC(=O)N[C@H](C(=O)N[C@@H](Cc1ccc(C#Cc2ccc(N3C4CCC3CN(C3COC3)C4)nc2)cc1)[C@@H](O)CN(Cc1c(F)cc(-c2cnn(C(F)F)c2)cc1F)NC(=O)[C@@H](NC(=O)OC)C(C)(C)C(F)(F)F)C(C)(C)C(F)(F)F [Example 19, methyl ((5S,8S,9S,14S)-11-(4-(1-(difluoromethyl)-1H-pyrazol-4-yl)-2,6-difluorobenzyl)-16,16,16-trifluoro-9-hydroxy-15,15-dimethyl-8-(4-((6-(3-(oxetan-3-yl)-3,8-diazabicyclo[3.2.1]octan-8-yl)pyridin-3-yl)ethynyl)benzyl)-3,6,13-trioxo-5-(1,1,1-trifluoro-2-methylpropan-2-yl)-2-oxa-4,7,11,12-tetraazahexadecan-14-yl)carbamate] | <0.11 L/H/kg | 0.29 L/H/kg | 8.43 nM |  | 
5 | 0.16 L/H/kg | 1.41 L/H/kg | COC(=O)N[C@H](C(=O)N[C@@H](Cc1ccc(C#Cc2cnc(N3C[C@H]4C[C@@H]3CN4C3COC3)nc2)cc1)[C@@H](O)CN(Cc1c(F)cc(-c2ccn(CC(F)F)n2)cc1F)NC(=O)[C@@H](NC(=O)OC)C(C)(C)C(F)(F)F)C(C)(C)C(F)(F)F [Example 25, Methyl ((5S,8S,9S,14S)-11-(4-(1-(2,2-difluoroethyl)-1H-pyrazol-3-yl)-2,6-difluorobenzyl)-16,16,16-trifluoro-9-hydroxy-15,15-dimethyl-8-(4-((2-((1R,4R)-5-(oxetan-3-yl)-2,5-diazabicyclo[2.2.1]heptan-2-yl)pyrimidin-5-yl)ethynyl)benzyl)-3,6,13-trioxo-5-(1,1,1-trifluoro-2-methylpropan-2-yl)-2-oxa-4,7,11,12-tetraazahexadecan-14-yl)carbamate] |  |  | 3.19 nM |  | 
6 |  |  | COC(=O)N[C@H](C(=O)N[C@@H](Cc1ccc(C#Cc2ccc(N3CC4COCC(C3)N4)nc2)cc1)[C@@H](O)CN(Cc1c(F)cc(-c2ccn(C(F)F)n2)cc1F)NC(=O)[C@@H](NC(=O)OC)C(C)(C)C(F)(F)F)C(C)(C)C(F)(F)F [Example 26, Methyl ((5S,8S,9S,14S)-8-(4-((6-(3-oxa-7,9-diazabicyclo[3.3.1]nonan-7-yl)pyridin-3-yl)ethynyl)benzyl)-11-(4-(1-(difluoromethyl)-1H-pyrazol-3-yl)-2,6-difluorobenzyl)-16,16,16-trifluoro-9-hydroxy-15,15-dimethyl-3,6,13-trioxo-5-(1,1,1-trifluoro-2-methylpropan-2-yl)-2-oxa-4,7,11,12-tetraazahexadecan-14-yl)carbamate] | <0.11 L/H/kg | 1.6 L/H/kg | 4.24 nM |  | 
7 | <0.11 L/H/kg | 0.75 L/H/kg | COC(=O)N[C@H](C(=O)N[C@@H](Cc1ccc(C#Cc2cnc(N3C[C@H]4C[C@@H]3CN4C3COC3)nc2)cc1)[C@@H](O)CN(Cc1c(F)cc(-c2ccn(C3CC3)n2)cc1F)NC(=O)[C@@H](NC(=O)OC)C(C)(C)C(F)(F)F)C(C)(C)C(F)(F)F [Example 31, Methyl ((5S,8S,9S,14S)-11-(4-(1-cyclopropyl-1H-pyrazol-3-yl)-2,6-difluorobenzyl)-16,16,16-trifluoro-9-hydroxy-15,15-dimethyl-8-(4-((2-((1R,4R)-5-(oxetan-3-yl)-2,5-diazabicyclo[2.2.1]heptan-2-yl)pyrimidin-5-yl)ethynyl)benzyl)-3,6,13-trioxo-5-(1,1,1-trifluoro-2-methylpropan-2-yl)-2-oxa-4,7,11,12-tetraazahexadecan-14-yl)carbamate] |  |  | 3.06 nM |  | 
8 | <0.11 L/H/kg | 0.59 L/H/kg | COC(=O)N[C@H](C(=O)N[C@@H](Cc1ccc(C#Cc2cnc(N3C[C@H]4C[C@@H]3CN4C3COC3)nc2)cc1)[C@@H](O)CN(Cc1c(F)cc(-c2ccn(C(F)F)n2)cc1F)NC(=O)[C@@H](NC(=O)OC)C(C)(C)C(F)(F)F)C(C)(C)C(F)(F)F [Example 32, Methyl ((5S,8S,9S,14S)-11-(4-(1-(difluoromethyl)-1H-pyrazol-3-yl)-2,6-difluorobenzyl)-16,16,16-trifluoro-9-hydroxy-15,15-dimethyl-8-(4-((2-((1R,4R)-5-(oxetan-3-yl)-2,5-diazabicyclo[2.2.1]heptan-2-yl)pyrimidin-5-yl)ethynyl)benzyl)-3,6,13-trioxo-5-(1,1,1-trifluoro-2-methylpropan-2-yl)-2-oxa-4,7,11,12-tetraazahexadecan-14-yl)carbamate] |  |  | 2.65 nM |  | 
9 |  |  | COC(=O)N[C@H](C(=O)N[C@@H](Cc1ccc(C#Cc2ccc(N3CC4COCC(C3)N4C)nc2)cc1)[C@@H](O)CN(Cc1c(F)cc(-c2ccn(C3CC3)n2)cc1F)NC(=O)[C@@H](NC(=O)OC)C(C)(C)C(F)(F)F)C(C)(C)C(F)(F)F [Example 35] | <0.11 L/H/kg | 2.1 L/H/kg | 3.54 nM | 1.74 L/H/kg | 
10 |  |  | COC(=O)N[C@H](C(=O)N[C@@H](Cc1ccc(C#Cc2cnc(N3CC4CCC(C3)N4C3COC3)nc2)cc1)[C@@H](O)CN(Cc1c(F)cc(-c2ccn(C3CC3)n2)cc1F)NC(=O)[C@@H](NC(=O)OC)C(C)(C)C(F)(F)F)C(C)(C)C(F)(F)F [Example 37, Methyl ((5S,8S,9S,14S)-11-(4-(1-cyclopropyl-1H-pyrazol-3-yl)-2,6-difluorobenzyl)-16,16,16-trifluoro-9-hydroxy-15,15-dimethyl-8-(4-((2-(8-(oxetan-3-yl)-3,8-diazabicyclo[3.2.1]octan-3-yl)pyrimidin-5-yl)ethynyl)benzyl)-3,6,13-trioxo-5-(1,1,1-trifluoro-2-methylpropan-2-yl)-2-oxa-4,7,11,12-tetraazahexadecan-14-yl)carbamate] | <0.11 L/H/kg | 0.32 L/H/kg | 6.75 nM |  | 
11 | 0.15 L/H/kg | 0.54 L/H/kg | COC(=O)N[C@H](C(=O)N[C@@H](Cc1ccc(C#Cc2ccc(N3C[C@@H]4C[C@H]3CN4C3COC3)nc2)cc1)[C@@H](O)CN(Cc1c(F)cc(-c2ccn(C3CC3)n2)cc1F)NC(=O)[C@@H](NC(=O)OC)C(C)(C)C(F)(F)F)C(C)(C)C(F)(F)F [Example 39, Methyl ((5S,8S,9S,14S)-11-(4-(1-cyclopropyl-1H-pyrazol-3-yl)-2,6-difluorobenzyl)-16,16,16-trifluoro-9-hydroxy-15,15-dimethyl-8-(4-((6-((1S,4S)-5-(oxetan-3-yl)-2,5-diazabicyclo[2.2.]heptan-2-yl)pyridin-3-yl)ethynyl)benzyl)-3,6,13-trioxo-5-(1,1,1-trifluoro-2-methylpropan-2-yl)-2-oxa-4,7,11,12-tetraazahexadecan-14-yl)carbamate] |  |  |  |  | 2.57 nM
